In patent US9375388B2, “Nanoparticle based cosmetic composition” (Indian Institute of Technology, priority 2011, dated 2016):

Test: Confocal laser scanning microscopy of skin penetration of dye
Assay type: in vitro ADME
Conditions: CLSM of rat skin, calcein dye (FIG. 2)
Text: FIG. 2. CLSM image of rat skin: without calcein dye under (a) calcein filter (b) bright field; with free calcein solution under (c) calcein filter (d) bright field; with calcein-loaded SPC liposomes under (e) calcein filter (f) bright field.

Question: Which “Penetration of dye through skin” value does the source give for `O=C(O)CN(CC(=O)O)Cc1cc2c(cc1O)Oc1cc(O)c(CN(CC(=O)O)CC(=O)O)cc1C21OC(=O)c2ccccc21` [free dye, calcein] here?
Answer: Its value is “visible only at the surface of the skin and around the hair follicles”.
